Experimental data as given in ChEMBL document CHEMBL1201862, “PubChem BioAssay data set” (2004).
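These data come from cells grown in 96-well plates and exposed to compound for 48 hours at five concentrations. At the GI50, growth is halved.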 Calls of active or inactive are those of the source. Cut-off read from the data, not from the text of the source: active = GI50 up to about 1.1 µM and inactive = higher.

Assays:
Assay in all cases: inhibition of tumour cell growth, NCI panel, 48 h
UACC-257 = test system: UACC-257
K562 = test system: K562
COLO 205 = test system: COLO 205
EKVX = test system: EKVX
SK-MEL-5 = test system: SK-MEL-5
IGROV-1 = test system: IGROV-1
NCI-H460 = test system: NCI-H460
NCI-H226 = test system: NCI-H226
KM12 = test system: KM12
RXF 393 = test system: RXF 393
A498 = test system: A498
T47D = test system: T47D
SF-295 = test system: SF-295
M14 = test system: M14
SNB-19 = test system: SNB-19
MDA-MB-231 = test system: MDA-MB-231
TK-10 = test system: TK-10
MOLT-4 = test system: MOLT-4
SF-539 = test system: SF-539
SK-OV-3 = test system: SK-OV-3
OVCAR-3 = test system: OVCAR-3
HT-29 = test system: HT-29
CAKI-1 = test system: CAKI-1
HL-60 = test system: HL-60
HCT-116 = test system: HCT-116
HCT-15 = test system: HCT-15
786-0 = test system: 786-0
ACHN = test system: ACHN
OVCAR-5 = test system: OVCAR-5
OVCAR-4 = test system: OVCAR-4
NCI-H23 = test system: NCI-H23
DU-145 = test system: DU-145
HOP-62 = test system: HOP-62
HOP-92 = test system: HOP-92
SK-MEL-2 = test system: SK-MEL-2
SNB-75 = test system: SNB-75
MCF7 = test system: MCF7
CCRF-CEM = test system: CCRF-CEM
SW-620 = test system: SW-620
A549 = test system: A549
MDA-MB-435 = test system: MDA-MB-435
RPMI-8226 = test system: RPMI-8226
SR = test system: SR
PC-3 = test system: PC-3
HCC 2998 = test system: HCC 2998
UO-31 = test system: UO-31
BT-549 = test system: BT-549
OVCAR-8 = test system: OVCAR-8
UACC-62 = test system: UACC-62
U-251 = test system: U-251
SK-MEL-28 = test system: SK-MEL-28
SN12C = test system: SN12C
LOX IMVI = test system: LOX IMVI
MDA-N = test system: MDA-N
NCI/ADR-RES = test system: NCI/ADR-RES
Hs-578T = test system: Hs-578T
NCI-H522 = test system: NCI-H522
SF-268 = test system: SF-268

Measured: GI50

COC(=O)C1(c2cc3ccccc3n2S(=O)(=O)c2ccccc2)CC2C=CC1NC2 (centres undefined)
inactive: UACC-257 2.22 µM | K562 1.77 µM | COLO 205 2.17 µM | EKVX 4.03 µM | SK-MEL-5 6.12 µM | IGROV-1 1.34 µM | NCI-H460 3.11 µM | NCI-H226 8.97 µM | KM12 2.47 µM | RXF 393 1.76 µM | A498 3.09 µM | T47D 3.24 µM | SF-295 2.91 µM | M14 1.79 µM | SNB-19 2.2 µM | MDA-MB-231 1.79 µM | TK-10 2.28 µM | MOLT-4 1.62 µM | SF-539 1.95 µM | SK-OV-3 3.41 µM | OVCAR-3 2.29 µM | HT-29 1.79 µM | CAKI-1 1.82 µM | HL-60 1.94 µM | HCT-116 2.23 µM | 786-0 1.94 µM | ACHN 1.84 µM | OVCAR-5 2.25 µM | OVCAR-4 1.98 µM | NCI-H23 2.18 µM | DU-145 2.4 µM | HOP-62 1.66 µM | HOP-92 1.52 µM | SK-MEL-2 1.77 µM | SNB-75 3.8 µM | MCF7 1.5 µM | SW-620 2.91 µM | A549 2.96 µM | MDA-MB-435 1.63 µM | PC-3 1.61 µM | HCC 2998 1.98 µM | UO-31 1.48 µM | BT-549 2.36 µM | OVCAR-8 1.95 µM | UACC-62 1.62 µM | U-251 1.43 µM | SK-MEL-28 2.67 µM | SN12C 2.08 µM | LOX IMVI 1.74 µM | MDA-N 2.13 µM | NCI/ADR-RES 2.42 µM
active: CCRF-CEM 0.735 µM | RPMI-8226 0.933 µM | SR 0.216 µM
1.75 µM: HCT-15

C=C(Nc1ccc([N+](=O)[O-])cc1[N+](=O)[O-])c1c/c(=N\NC(N)=S)c2ccccc2o1
51.9 µM: HCT-15
inactive: UACC-257 91.6 µM | COLO 205 33.5 µM | EKVX 68.7 µM | SK-MEL-5 37.7 µM | Hs-578T > 100 µM | IGROV-1 36.1 µM | NCI-H522 > 100 µM | NCI-H460 > 100 µM | NCI-H226 28.2 µM | KM12 59.4 µM | RXF 393 60.3 µM | SF-295 39.5 µM | M14 > 100 µM | SNB-19 53 µM | MDA-MB-231 26.8 µM | TK-10 > 100 µM | MOLT-4 42.4 µM | SF-539 16.6 µM | SK-OV-3 35.7 µM | OVCAR-3 22.7 µM | HT-29 87.7 µM | SF-268 > 100 µM | CAKI-1 > 100 µM | HL-60 32.8 µM | HCT-116 33.7 µM | 786-0 66.8 µM | ACHN 89.5 µM | OVCAR-5 56.9 µM | OVCAR-4 49 µM | NCI-H23 81.8 µM | DU-145 > 100 µM | HOP-62 70 µM | HOP-92 29 µM | SK-MEL-2 > 100 µM | SNB-75 74.8 µM | MCF7 40.6 µM | CCRF-CEM 41.9 µM | SW-620 39.8 µM | A549 > 100 µM | MDA-MB-435 81.5 µM | SR 16.9 µM | PC-3 26.1 µM | HCC 2998 95.9 µM | UO-31 29.1 µM | BT-549 > 100 µM | OVCAR-8 41.7 µM | UACC-62 > 100 µM | U-251 61.1 µM | SK-MEL-28 > 100 µM | SN12C 47.6 µM | LOX IMVI > 100 µM | MDA-N > 100 µM | NCI/ADR-RES 40.9 µM
